Several values for one entry are separate records, joined by “and”; a condition that tells them apart may be missing. Identical values can stand only once. Like-named read-outs stand apart in the source and are kept apart here.
What was measured:
Athe_2574 [1] = biological target: T1, Athe_2574 (Anaerocellum bescii, UniProt A0ABY1S640); assay: DSC thermal shift of Athe_2574 with ɑ-glucan substrates; format: binding; settings: for Tm: Athe_2574 + sugar, 2.5 mg/mL protein; for Tm / ΔTm: 5 mM sugar, 50 mM HEPES, 300 mM NaCl pH 7.0; for ΔTm: |Tm,holo − Tm,apo|
Source text: (§1) In DSC, proteins are heated at a constant rate to induce thermal denaturation. This can be measured by an increase in the protein’s specific heat capacity Cp(T) as a function of temperature. The melting temperature Tm is defined as the temperature at which the protein attains its maximum heat capacity and becomes fully denatured ([46]). However, the presence of their cognate ligands can induce substrate-binding proteins to adopt a more thermally stable closed conformation, resulting in an increase in Tm ([47]). This ΔTm = |Tm,holo − Tm,apo| difference can be used to determine differential substrate specificity, as preferred ligands that are more tightly bound will yield larger ΔTm values. […] However, other short ɑ-glucans trehalose (ΔTm = 7.23 °C) and maltotriose (ΔTm = 6.63 °C) also yield substantial melting temperature differences. Melting temperature differences are subtler with longer oligosaccharides maltotetraose (ΔTm = 1.57 °C), maltopentaose (ΔTm = 0.95 °C), and maltoheptaose (ΔTm = 0.26 °C) (Fig. 4a). However, as binding of maltose to E. coli MBP is known to increase protein melting temperature by approximately 8 °C, depending on pH, it is unlikely binding is taking place between Athe_2310 and longer maltodextrins (G4–G7) due to their much smaller ΔTm values in comparison ([47], [48]).
(§2) DSC measurements using a MicroCal PEAQ-DSC (Malvern Panalytical) were performed on Athe_2310 and Athe_2574 in combination with a variety of ɑ-glucans: trehalose (G2), maltose (G2), maltotriose (G3), maltotetraose (G4), maltopentaose (G5), and maltoheptaose (G7). The scan rate was set to […], with a max temperature of 130 °C. Protein was mixed with each sugar, yielding final concentrations of 2.5 mg/mL of protein and 5 mM of sugar. A total of 50 mM HEPES, 300 mM NaCl, pH 7.0, was used as the reference buffer. The heat capacity Cp was plotted against temperature and then normalized by the respective run’s maximum Cp value ( Cp,max ). We defined the melting temperature Tm as the temperature corresponding to Cp,max=Cp(T=Tm) . The melting temperature difference ΔTm=|Tm,holo-Tm,apo| is defined as the absolute difference in melting temperature between the melting temperature of a protein-sugar mix and the same protein with no sugar present.

Athe_2310 [2] = biological target: T2, Athe_2310 (Anaerocellum bescii, UniProt A0ABY1S743); assay: DSC thermal shift of Athe_2310 with ɑ-glucan substrates; format: binding; settings: 5 mM sugar, 50 mM HEPES, 300 mM NaCl pH 7.0; for Tm: Athe_2310 + sugar, 2.5 mg/mL protein; for ΔTm: Athe_2310, |Tm,holo − Tm,apo|
Source text: as §1, §2

Athe_2310 [3] = biological target: T2, Athe_2310; assay: ITC of Athe_2310 with ɑ-glucan substrates; format: binding; settings: for Ka: Ka=1/Kd; for n (stoichiometry): single-site binding model
Experimental: Proteins were dialyzed into the following buffer: 50 mM HEPES, 300 mM NaCl, pH 7.0 via 10 kDa MWCO PES filter 20 mL Spin-X Concentrators (Corning). […] A standard titration experiment consisted of the protein sample at 50 µM and the sugar ligand at 500 µM. The stirring was set at 750 rpm. The 280 µL sample of protein was injected with a priming aliquot of 0.2 µL of sugar ligand, followed by 19 successive injections of 2.0 µL at 120 seconds intervals. Integrated heat effects were determined by non-linear regression using a single-site binding model (Microcal PEAQ-ITC Analysis). The fitted isotherms yield the binding dissociation constant and other thermodynamic parameters calculated using the differential form of the Gibbs Free Energy equation ΔGd=-RTln(Kd) . The slope of the binding isotherm at the equivalence point was used to determine the dissociation constant Kd .

Athe_2574 [4] = biological target: T1, Athe_2574; assay: biochemical; format: binding; settings: for TΔS / ΔG / ΔH / Kd / Ka / n (stoichiometry): ITC 25 °C; for Kd: 50 mM HEPES; for Ka: Ka=1/Kd; for n (stoichiometry): single-site binding model
Experimental: Proteins were dialyzed into the following buffer: 50 mM HEPES, 300 mM NaCl, pH 7.0 via 10 kDa MWCO PES filter 20 mL Spin-X Concentrators (Corning). Measurements were performed at 25 °C using a MicroCal PEAQ Isothermal Titration Calorimeter (Malvern Panalytical). A standard titration experiment consisted of the protein sample at 50 µM and the sugar ligand at 500 µM. The stirring was set at 750 rpm. The 280 µL sample of protein was injected with a priming aliquot of 0.2 µL of sugar ligand, followed by 19 successive injections of 2.0 µL at 120 seconds intervals. Integrated heat effects were determined by non-linear regression using a single-site binding model (Microcal PEAQ-ITC Analysis). The fitted isotherms yield the binding dissociation constant and other thermodynamic parameters calculated using the differential form of the Gibbs Free Energy equation ΔGd=-RTln(Kd) . The slope of the binding isotherm at the equivalence point was used to determine the dissociation constant Kd . The […] Ka is defined as Ka=1/Kd .

[5] = system: Athe_2310_Mut1 (D69F G279F G278F); assay: DSC screen of mutant Athe_2310_Mut1 with maltodextrins; format: binding, Anaerocellum bescii; settings: Fig. S5, result in words
Source text: We constructed mutant variants Athe_2310_Mut1 (D69F G279F G278F) and Athe_2574_Mut1 (G253F V254F P61W N63F D64F M322A W332A) that each contain point substitutions on residues predicted to be critical for both hydrophobic and hydrophilic contacts. In other words, the mutation of these residues is predicted to confer energetic penalties sufficiently large to prevent substrate binding. […] Similarly, Athe_2574_Mut1, with seven-point mutations due to its greater number of subsites, can no longer recognize maltodextrin substrates of any length (Fig. S6).
as §2, with “The melting temperature difference ΔTm=|Tm,holo-Tm,apo| is defined as the absolute difference in melting temperature between the melting temperature of a protein-sugar mix and the same protein with no sugar present.” left out

E. coli MBP = system: E. coli MBP; design: method as in PMID 9007986, doi:10.1007/s00723-020-01232-y; settings: depending on pH; cited from earlier work
[6] = Athe_2310, ITC 25 °C, 50 mM HEPES, 300 mM NaCl pH 7.0, read-out: Kd
[7] = 300 mM NaCl pH 7.0, read-out: Kd

T2 sequence (A0ABY1S743 entry or part of it): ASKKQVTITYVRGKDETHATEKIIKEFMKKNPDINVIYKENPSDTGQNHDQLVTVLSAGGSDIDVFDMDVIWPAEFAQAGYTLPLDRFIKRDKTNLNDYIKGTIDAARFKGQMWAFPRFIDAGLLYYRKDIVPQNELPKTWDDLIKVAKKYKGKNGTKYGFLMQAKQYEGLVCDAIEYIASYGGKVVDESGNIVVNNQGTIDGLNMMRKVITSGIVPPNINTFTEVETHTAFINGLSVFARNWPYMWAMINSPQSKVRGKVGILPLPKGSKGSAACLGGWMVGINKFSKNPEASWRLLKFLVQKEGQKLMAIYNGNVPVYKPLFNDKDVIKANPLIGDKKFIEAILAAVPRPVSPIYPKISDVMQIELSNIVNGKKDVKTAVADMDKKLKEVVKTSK
T1 sequence (A0ABY1S640 entry or part of it): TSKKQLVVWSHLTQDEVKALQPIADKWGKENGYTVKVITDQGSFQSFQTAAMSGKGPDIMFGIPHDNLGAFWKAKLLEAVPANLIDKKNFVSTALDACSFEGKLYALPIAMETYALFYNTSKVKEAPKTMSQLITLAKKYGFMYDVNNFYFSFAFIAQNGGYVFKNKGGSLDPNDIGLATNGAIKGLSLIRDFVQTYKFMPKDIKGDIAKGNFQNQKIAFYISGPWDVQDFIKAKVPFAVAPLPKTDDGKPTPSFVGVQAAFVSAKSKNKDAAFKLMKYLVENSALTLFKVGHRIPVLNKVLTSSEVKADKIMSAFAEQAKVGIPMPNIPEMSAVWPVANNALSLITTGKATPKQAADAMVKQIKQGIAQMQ

Compound: OC[C@H]1O[C@H](O[C@H]2[C@H](O)[C@@H](O)[C@@H](O[C@H]3[C@H](O)[C@@H](O)C(O)O[C@@H]3CO)O[C@@H]2CO)[C@H](O)[C@@H](O)[C@@H]1O (stereo partly drawn) [MalG3, D-Maltotriose]
- Tm (Athe_2574 [1]): 101.47 °C
- Tm (Athe_2574 [1]; listed as Maltotriose): 101.5 °C
- ΔTm (Athe_2574 [1]; Athe_2574): 8.72 °C
- Tm (Athe_2310 [2]): 108.42 °C
- Tm (Athe_2310 [2]; listed as Maltotriose): 108.4 °C
- ΔTm (Athe_2310 [2]): 6.63 °C
- TΔS (Athe_2310 [3]; Athe_2310, ITC 25 °C): -4.85 kcal/mol
- ΔG (Athe_2310 [3]; Athe_2310, ITC 25 °C): -7.21 kcal/mol
- ΔH (Athe_2310 [3]; Athe_2310, ITC 25 °C): -2.36 ± 0.38 kcal/mol
- Kd (Athe_2310 [3]; [6]): 5210 ± 2980 nM
- Ka (Athe_2310 [3]; Athe_2310, ITC 25 °C): 192000 M⁻¹
- n (stoichiometry) (Athe_2310 [3]; Athe_2310, ITC 25 °C): 0.79 ± 0.06
- TΔS (Athe_2574 [4]): 20.4 kcal/mol
- ΔG (Athe_2574 [4]): -4.48 kcal/mol
- ΔH (Athe_2574 [4]): -24.80 ± 2410 kcal/mol
- Kd (Athe_2574 [4]; [7]): 523000 nM
- Ka (Athe_2574 [4]): 1900 M⁻¹
- n (stoichiometry) (Athe_2574 [4]): 1.57 ± 85.80
- binding to Athe_2310_Mut1 [5]: can no longer bind

Compound: OC[C@H]1O[C@H](O[C@H]2[C@H](O)[C@@H](O)[C@@H](O[C@H]3[C@H](O)[C@@H](O)[C@@H](O[C@H]4[C@H](O)[C@@H](O)C(O)O[C@@H]4CO)O[C@@H]3CO)O[C@@H]2CO)[C@H](O)[C@@H](O)[C@@H]1O (stereo partly drawn) [MalG4, D-Maltotetraose]
- Tm (Athe_2574 [1]): 104.26 °C
- Tm (Athe_2574 [1]; listed as Maltotetraose): 102.7 °C
- Tm (Athe_2310 [2]): 103.36 °C
- Tm (Athe_2310 [2]; listed as Maltotetraose): 103.4 °C
- TΔS (Athe_2574 [4]): 0.664 kcal/mol
- ΔG (Athe_2574 [4]): -9.24 kcal/mol
- ΔH (Athe_2574 [4]): -9.90 ± 0.19 kcal/mol
- Kd (Athe_2574 [4]; [7]): 170 ± 40 nM
- Ka (Athe_2574 [4]): 5.848e+06 M⁻¹
- n (stoichiometry) (Athe_2574 [4]): 0.98 ± 0.01

Compound: OC[C@H]1O[C@H](O[C@H]2[C@H](O)[C@@H](O)[C@@H](O[C@H]3[C@H](O)[C@@H](O)[C@@H](O[C@H]4[C@H](O)[C@@H](O)[C@@H](O[C@H]5[C@H](O)[C@@H](O)C(O)O[C@@H]5CO)O[C@@H]4CO)O[C@@H]3CO)O[C@@H]2CO)[C@H](O)[C@@H](O)[C@@H]1O (stereo partly drawn) [MalG5, D-Maltopentaose]
- Tm (Athe_2574 [1]): 104.93 °C
- Tm (Athe_2574 [1]; listed as Maltopentaose): 104.9 °C
- Tm (Athe_2310 [2]): 102.73 °C
- Tm (Athe_2310 [2]; listed as Maltopentaose): 102.7 °C
- TΔS (Athe_2574 [4]): -3.03 kcal/mol
- ΔG (Athe_2574 [4]): -9.56 kcal/mol
- ΔH (Athe_2574 [4]): -6.52 ± 0.07 kcal/mol
- Kd (Athe_2574 [4]; [7]): 100 ± 10 nM
- Ka (Athe_2574 [4]): 9.901e+06 M⁻¹
- n (stoichiometry) (Athe_2574 [4]): 0.90 ± 0.00

Compound: OC[C@H]1O[C@H](O[C@H]2[C@H](O)[C@@H](O)[C@@H](O[C@H]3[C@H](O)[C@@H](O)[C@@H](O[C@H]4[C@H](O)[C@@H](O)[C@@H](O[C@H]5[C@H](O)[C@@H](O)[C@@H](O[C@H]6[C@H](O)[C@@H](O)[C@@H](O[C@H]7[C@H](O)[C@@H](O)C(O)O[C@@H]7CO)O[C@@H]6CO)O[C@@H]5CO)O[C@@H]4CO)O[C@@H]3CO)O[C@@H]2CO)[C@H](O)[C@@H](O)[C@@H]1O (stereo partly drawn) [MalG7, D-Maltoheptaose]
- Tm (Athe_2574 [1]): 105.04 °C
- Tm (Athe_2574 [1]; listed as Maltoheptaose): 105.0 °C
- Tm (Athe_2310 [2]): 102.06 °C
- Tm (Athe_2310 [2]; listed as Maltoheptaose): 102.1 °C
- TΔS (Athe_2574 [4]): -2.69 kcal/mol
- ΔG (Athe_2574 [4]): -9.98 kcal/mol
- ΔH (Athe_2574 [4]): -7.29 ± 0.04 kcal/mol
- Ka (Athe_2574 [4]): 2.0492e+07 M⁻¹
- n (stoichiometry) (Athe_2574 [4]): 0.82 ± 0.00
- Kd (Athe_2574 [4]; Kd, 300 mM NaCl pH 7.0): 49 nM and 50 nM

Compound: OC[C@H]1O[C@H](O[C@H]2[C@H](O)[C@@H](O)[C@H](O)O[C@@H]2CO)[C@H](O)[C@@H](O)[C@@H]1O [Maltose, D-Maltose Monohydrate]
- Tm (Athe_2574 [1]): 97.8 °C
- increase of protein melting temperature on binding (E. coli MBP): approximately 8 °C
- Tm (Athe_2310 [2]): 110.9 °C and 110.85 °C
- Kd (Athe_2310 [3]): 3930 ± 780 nM
- TΔS (Athe_2310 [3]; Athe_2310, ITC 25 °C): -3.85 kcal/mol
- ΔG (Athe_2310 [3]; Athe_2310, ITC 25 °C): -7.38 kcal/mol
- ΔH (Athe_2310 [3]; Athe_2310, ITC 25 °C): -3.53 ± 0.18 kcal/mol
- Ka (Athe_2310 [3]; Athe_2310, ITC 25 °C): 254000 M⁻¹
- n (stoichiometry) (Athe_2310 [3]; Athe_2310, ITC 25 °C): 0.76 ± 0.02
- ITC enthalpy changes of binding / fit of Kd and n (Athe_2574 [4]; result in words): too small to fit meaningful
- binding to Athe_2310_Mut1 [5]: can no longer bind

Compound: OC[C@H]1O[C@H](O[C@H]2O[C@H](CO)[C@@H](O)[C@H](O)[C@H]2O)[C@H](O)[C@@H](O)[C@@H]1O [Trehalose, D-Trehalose Dihydrate]
- Tm (Athe_2574 [1]): 92.8 °C and 92.69 °C
- binding to Athe_2574 judged from DSC melting profile (Athe_2574 [1]; Athe_2574, result in words): absence of binding
- ΔTm (Athe_2574 [1]; Athe_2574): 0.1 °C
- Tm (Athe_2310 [2]): 109.02 °C
- ΔTm (Athe_2310 [2]): 7.23 °C
- TΔS (Athe_2310 [3]; Athe_2310, ITC 25 °C): -4.45 kcal/mol
- ΔG (Athe_2310 [3]; Athe_2310, ITC 25 °C): -7.63 kcal/mol
- ΔH (Athe_2310 [3]; Athe_2310, ITC 25 °C): -3.18 ± 0.14 kcal/mol
- Kd (Athe_2310 [3]; [6]): 2590 ± 500 nM
- Ka (Athe_2310 [3]; Athe_2310, ITC 25 °C): 386000 M⁻¹
- n (stoichiometry) (Athe_2310 [3]; Athe_2310, ITC 25 °C): 0.96 ± 0.02
